Source: patent US11767310B2, “Nicotinamide RIPK1 inhibitors” (AbbVie Inc., priority 2021, dated 2023)

Legend:
U937 cells = assay: U937 TNF/zVAD Cytotoxicity Cell Assay; type: cell-based; conditions: Homo sapiens, U-937; TNFα 10 ng/mL + Z-VAD FMK 20 μM, 16-20 hours; read-out: U937 TNF/zVAD Induced Cytotoxicity IC50
Procedure: Compounds were tested for their ability to prevent TNF induced necroptosis in U937 cells. Treatment with TNF and the caspase inhibitor zVAD-FMK results in the activation and phosphorylation of RIPK1 and subsequent phosphorylation of RIPK3 and MLKL (Mixed Lineage Kinase Domain Like Pseudokinase), leading to induction of necroptotic cell death that is measured as a reduction in cell viability. Similar U937 assay protocols have been previously described; see, e.g., Harris et al., ACS Med. Chem. Letters (2013) 4:1238-1243 and Supplementary Information.
Test compounds were solvated in dimethyl sulfoxide (DMSO) and 3-fold serially diluted from 10 uM to 0.0005 uM with technical duplicates into an empty 384 well plate. U937 cells were resuspended at a concentration of 500,000 cells/mL in fresh RPMI (Roswell Park Memorial Institute) 1640 growth medium containing 10% heat inactivated fetal bovine serum (FB1S) and seeded into a 384 well plate containing compounds and incubated for 1 hour at 37° C. Following incubation, the cells were challenged with TNFα (final concentration of 10 ng/mL) and Z-VAD FMK (N-Benzyloxycarbonyl-Val-Ala-Asp(O-Me) fluoromethyl ketone; final concentration of 20 μM) for 16-20 hours at 37° C. Following the incubation with TNFα/Z-VAD, cells were lysed with Cell Titer-Glo and incubated for 5-10 minutes. The plate was then read on an Envision plate reader. Data was normalized and analyzed with Studies from Dotmatics.

RIPK1 = RIPK1 (Homo sapiens (Human), UniProt Q13546); assay: RIPK1 Binding Assay; conditions: displacement of fluorescent probe, TR-FRET
Chain of RIPK1 (Q13546 1-375): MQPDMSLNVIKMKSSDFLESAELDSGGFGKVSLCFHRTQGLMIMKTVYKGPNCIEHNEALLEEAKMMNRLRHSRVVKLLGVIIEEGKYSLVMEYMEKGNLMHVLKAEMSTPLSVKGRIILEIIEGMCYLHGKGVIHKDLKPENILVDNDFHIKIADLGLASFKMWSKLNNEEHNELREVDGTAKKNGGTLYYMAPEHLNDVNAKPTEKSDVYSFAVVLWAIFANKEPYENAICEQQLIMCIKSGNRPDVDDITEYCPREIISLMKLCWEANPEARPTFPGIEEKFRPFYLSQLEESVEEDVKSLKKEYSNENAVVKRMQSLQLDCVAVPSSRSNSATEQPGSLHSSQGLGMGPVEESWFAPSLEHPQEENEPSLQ
Procedure: Compounds were tested for their ability to displace a fluorescent probe from recombinant human RIPK1.
Recombinant human RIPK1 (1-375) was prepared as described in Harris et al., ACS Med. Chem. Letters (2013) 4:1238-1243 (Supplementary Information), with the following exceptions: (i) instead of using the gene sequence from NM_003804.3, the gene was synthesized with codon optimization for BEV expression system, and (ii) the gene was cloned into the vector pFastBac1, not pDEST8.
A fluorescent probe containing an Oregon green fluorophore was synthesized from a compound known to bind to RIPK1.
The assay was performed in a buffer containing 50 mM N-2-Hydroxyethylpiperazine-N′-2-ethanesulfonic acid (HEPES) (pH 7.5), 10 mM MgCl2, 1 mM ethylene diamine tetraacetic acid (EDTA), and 0.01% BRIJ-35 (Polyoxyethylene (23) lauryl ether). Test compounds were solvated in dimethyl sulfoxide (DMSO) at final concentrations 4-fold serially diluted from 100 to 0.000095 uM in technical duplicates into an empty 384 well plate. Recombinant RIPK1 (final concentration of 2.5 nM) was added to the wells and incubated with test compound for 1 hour at room temperature. A solution containing the fluorescent probe (final concentration 5 nM) and an LanthaScreen Tb-anti-GST antibody (Thermofisher Scientific; final concentration of 5 nM) was then added to each well, with the Tb-anti-GST antibody binding to the GST portion of the recombinant RIPK1 and providing the corresponding FRET pair to the fluorescent probe. The plate was incubated for 1 hour at room temperature and read on an Envision plate reader using a time resolved FRET protocol. Data was normalized and analyzed using Studies from Dotmatics.

Compound | IC50 (U937 cells) [µM] | IC50 (RIPK1) [µM]
CN(C[C@@H](O)Cc1ccccc1)C(=O)c1cncc(C#Cc2cnn(C3COC3)n2)c1 [Example 10, (S)-N-(2-hydroxy-3-phenylpropyl)-N-methyl-5-((2-(oxetan-3-yl)-2H-1,2,3-triazol-4-yl)ethynyl)nicotinamide] | 0.38 | 0.043
Cc1ncc(C#Cc2cncc(C(=O)N(C)C[C@@H](O)Cc3ccccc3)c2)o1 [Example 17, (S)-N-(2-hydroxy-3-phenylpropyl)-N-methyl-5-((2-methyloxazol-5-yl)ethynyl)nicotinamide] | 0.146 | 0.032
CN(CC(O)Cc1ccccc1)C(=O)c1cnc(C(F)F)c(C#Cc2cnn(C)c2)c1 (stereo in doubt) [Example 9, (S)-6-(difluoromethyl)-N-(2-hydroxy-3-phenylpropyl)-N-methyl-5-((1-methyl-1H-pyrazol-4-yl)ethynyl)nicotinamide] | 0.029 | 0.018
CN(C[C@@H](O)Cc1ccccc1)C(=O)c1cncc(C#Cc2cnn3c2COCC3)c1 [Example 8, (S)-5-((6,7-Dihydro-4H-pyrazolo[5,1-c][1,4]oxazin-3-yl)ethynyl)-N-(2-hydroxy-3-phenylpropyl)-N-methylnicotinamide] | 0.013 | 0.006
CN(C[C@@H](O)Cc1ccccc1)C(=O)c1cncc(C#Cc2cnn(C3CC3)c2)c1 [Example 5, (S)-5-((1-cyclopropyl-1H-pyrazol-4-yl)ethynyl)-N-(2-hydroxy-3-phenylpropyl)-N-methylnicotinamide] | 0.049 | 0.014
CN(C[C@@H](O)Cc1cccc(F)c1)C(=O)c1cncc(C#Cc2cnn(C)c2)c1 [Example 12, (S)-N-(3-(3-fluorophenyl)-2-hydroxypropyl)-N-methyl-5-((1-methyl-1H-pyrazol-4-yl)ethynyl)nicotinamide] | 0.02 | 0.013
CN(C[C@@H](O)Cc1ccccc1)C(=O)c1cncc(C#Cc2cnn(C)n2)c1 [Example 3, (S)-N-(2-hydroxy-3-phenylpropyl)-N-methyl-5-((2-methyl-2H-1,2,3-triazol-4-yl)ethynyl)nicotinamide] | 0.196 | 0.036
Cc1ncc(C#Cc2cncc(C(=O)N(C)C[C@@H](O)Cc3ccccc3)c2)s1 [Example 15, (S)-N-(2-hydroxy-3-phenylpropyl)-N-methyl-5-((2-methylthiazol-5-yl)ethynyl) nicotinamide] |  | 25
CN(C[C@@H](O)Cc1ccccc1)C(=O)c1cncc(C#Cc2cnn(C)c2C2CC2)c1 [Example 11, (S)-5-((5-cyclopropyl-1-methyl-1H-pyrazol-4-yl)ethynyl)-N-(2-hydroxy-3-phenylpropyl)-N-methylnicotinamide] | 0.005 | 0.002
CN(C[C@@H](O)Cc1ccccc1)C(=O)c1cncc(C#Cc2cnn(C3CCC3)c2)c1 [Example 6, (S)-5-((1-cyclobutyl-1H-pyrazol-4-yl)ethynyl)-N-(2-hydroxy-3-phenylpropyl)-N-methylnicotinamide] | 0.006 | 0.003
Cc1c(C#Cc2cncc(C(=O)N(C)C[C@@H](O)Cc3ccccc3)c2)cnn1C(F)F [Example 26, (S)-5-((1-(difluoromethyl)-5-methyl-1H-pyrazol-4-yl)ethynyl)-N-(2-hydroxy-3-phenylpropyl)-N-methylnicotinamide] | 0.003 | 0.0018
COc1ncc(C(=O)N(C)C[C@@H](O)Cc2ccccc2)cc1C#Cc1cnn(C)c1 [Example 13, (S)-N-(2-hydroxy-3-phenylpropyl)-6-methoxy-N-methyl-5-((1-methyl-1H-pyrazol-4-yl)ethynyl)nicotinamide] | 0.382 | 0.095
CN(C[C@@H](O)Cc1ccccc1)C(=O)c1cncc(C#Cc2cnn(C(F)(F)F)c2)c1 [Example 4, (S)-N-(2-hydroxy-3-phenylpropyl)-N-methyl-5-((1-(trifluoromethyl)-1H-pyrazol-4-yl)ethynyl)nicotinamide] | 0.199 | 0.03
CN(C[C@@H](O)[C@@H](F)c1ccccc1)C(=O)c1cncc(C#Cc2cnn(C)c2)c1 [Example 7, N-((2R,3S)-3-fluoro-2-hydroxy-3-phenylpropyl)-N-methyl-5-((1-methyl-1H-pyrazol-4-yl)ethynyl)nicotinamide] | 0.009 | 0.007
